The values below come from patent US20240116990A1, “Compositions and Methods of Treatment Using CRRL 191” (Mayo Foundation for Medical Education and Research, priority 2022, published 2024).

For one series, the target named is T1, human GC-A (Homo sapiens, UniProt P16066).
T1 construct: host or cells: HEK293
T1 sequence (P16066 33-1061): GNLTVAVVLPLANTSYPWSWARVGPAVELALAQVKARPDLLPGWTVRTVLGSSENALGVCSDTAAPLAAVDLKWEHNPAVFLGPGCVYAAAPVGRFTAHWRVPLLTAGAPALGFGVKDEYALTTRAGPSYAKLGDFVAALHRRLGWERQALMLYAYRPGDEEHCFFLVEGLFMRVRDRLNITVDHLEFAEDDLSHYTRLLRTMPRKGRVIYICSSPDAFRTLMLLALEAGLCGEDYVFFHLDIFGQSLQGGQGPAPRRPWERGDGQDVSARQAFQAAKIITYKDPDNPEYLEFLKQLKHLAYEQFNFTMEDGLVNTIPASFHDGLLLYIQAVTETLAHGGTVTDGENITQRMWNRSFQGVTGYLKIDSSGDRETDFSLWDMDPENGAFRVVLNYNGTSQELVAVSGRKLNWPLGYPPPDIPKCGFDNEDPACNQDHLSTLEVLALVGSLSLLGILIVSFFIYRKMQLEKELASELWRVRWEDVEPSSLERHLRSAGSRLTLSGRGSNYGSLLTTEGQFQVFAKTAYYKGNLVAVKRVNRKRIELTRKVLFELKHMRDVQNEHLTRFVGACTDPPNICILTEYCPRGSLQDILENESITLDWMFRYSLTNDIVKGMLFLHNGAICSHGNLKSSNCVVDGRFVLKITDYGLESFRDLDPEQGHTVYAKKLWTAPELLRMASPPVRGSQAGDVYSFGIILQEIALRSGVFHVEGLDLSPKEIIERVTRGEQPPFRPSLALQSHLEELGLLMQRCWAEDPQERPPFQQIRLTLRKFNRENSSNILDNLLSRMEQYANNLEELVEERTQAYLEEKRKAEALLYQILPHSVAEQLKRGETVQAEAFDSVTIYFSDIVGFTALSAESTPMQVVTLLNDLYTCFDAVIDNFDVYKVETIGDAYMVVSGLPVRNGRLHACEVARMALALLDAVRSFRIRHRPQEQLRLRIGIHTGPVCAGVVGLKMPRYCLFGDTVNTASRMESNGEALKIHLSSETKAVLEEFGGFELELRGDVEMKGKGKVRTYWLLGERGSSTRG
As to the kind of experiment: cGMP production in HEK293 cells overexpressing GC-A, 10 min stimulation. On the set-up: Mean (intracellular cGMP): unit not given here. The following applies: for Mean (intracellular cGMP): 10 min, HEK293 GC-A cells. It counts as cell-based. The procedure:
HEK293 cells stably transfected with human GC-A (cDNA clones from Origene, Rockville, MD) using Lipofectamine (Invitrogen, Grand Island, NY), are developed. Receptor overexpression is verified with immunofluorescence and western blotting. GC-A-transfected HEK293 (HEK/GCA) cells are maintained in Dulbecco's modified Eagle's medium (DMEM) supplemented with 10% fetal bovine serum (FBS), 100 U/ml penicillin, 100 U/ml streptomycin and 250 μg/ml G418.
Two in vitro cGMP assays are performed. Briefly, HEK/GCA cells are seeded in 48-well plates and cultured overnight to 80-90% confluency. The treatment buffer used in all experiments comprises Hank's Balanced Salt Solution (HBSS), 0.1% bovine serum albumin (BSA), 2 mM HEPES, and 0.5 mM 3-isobutyl-1-methylxanthine (IBMX, a non-specific phosphodiesterase inhibitor) (Sigma, St. Louis, MO).
After treatment, all cells are washed with phosphate buffered solution (PBS) once and lysed with 0.1M HCl.

In series [1] the test system is Human cardiomyocytes (HCM). As to the kind of experiment: Human cardiomyocyte (HCM) cGMP analysis. It counts as cell-based. The procedure: Human cardiomyocytes (HCM) are purchased from ScienCell (Catalog #6200) and maintained in Cardiac Myocyte Medium (Cat #6101, ScienCell) containing 10% FBS. An in vitro cGMP assay is performed. Briefly, HCM cells are seeded in 6-well plates and cultured overnight to 80-90% confluency. The treatment buffer used in all experiments comprises Hank's Balanced Salt Solution (HBSS), 0.1% BSA, 2 mM HEPES, and 0.5 mM 3-isobutyl-1-methylxanthine (IBMX, a non-specific phosphodiesterase inhibitor) (Sigma, St. Louis, MO). […] For the negative control, HCM are incubated in treatment buffer (vehicle) only. After treatment for 10 minutes, all cells are washed with phosphate buffered solution (PBS) once, lysed with 0.1 M HCl, and sonicated for 10 min.

Series [2] concerns Spontaneously Hypertensive Rats (SHR). As to the kind of experiment: Blood pressure in spontaneously hypertensive rats during infusion and washout. It counts as in vivo, rat. As to conditions: 100 pmol/kg and 300 pmol/kg doses. The procedure:
(§1) All rat experiments are conducted following the Animal Welfare Act and the protocol is approved by the Mayo Clinic Institutional Animal Care and Use Committee (IACUC). […] Rats are included only if they are deemed healthy by the Institutional Veterinarian Department. Investigators who conduct the in vivo study are not blinded to treatments, but biochemical analysis is performed by a different investigator who is blinded to treatment.
(§2) On the day of the experiment, SHR rats are anesthetized with inactin (120 mg/kg, intraperitoneal injection, Sigma, St. Louis, MO). Rats are then kept on a heating pad at 38° C. to maintain a normal body temperature for the entire study. Vascular and bladder cannulation procedures are conducted. Briefly, a polyethylene-50 (PE-50) tube catheter is placed into one jugular vein for peptide infusion and another PE-50 tube is placed into the carotid artery for blood pressure (BP) monitoring (Sonometrics, London, Ontario, Canada) and blood sampling. After instrumentation, a 15-minute equilibrium period follows, and a 30-minute pre-infusion period is performed to collect baseline urine samples.
(§3) Four blood samples are collected to determine circulating cGMP levels: at baseline, before the end of drug infusion, at the middle of the washout clearance period, and before the end of the washout clearance period. Any blood loss in the rats is replaced with an equal volume of saline. BP is monitored and recorded every 15 minutes beginning after the initiation of peptide infusion. All collected blood are stored at −80° C. until assayed.

The test system is the same in series [3]. The experiment in a line: Plasma cGMP in spontaneously hypertensive rats. It counts as in vivo, rat. The procedure:
as §1, §2, §3
For the biochemical analysis, plasma cGMP levels are measured with a cGMP ELISA kit (Enzo Life Sciences, Farmingdale, NY).

A further series can be described thus: physchem. The following applies: water.
The mark [4] stands for this setting: 100 pmol/kg and 300 pmol/kg doses, FIG. 9B.

Bridge positions count the residues as written; N and C are the ends. Bounds are passed on as bounds.

“H-RALLTAPRSLRRSSCFGHKIDRINHVSNLGCNSFRYRITAREDKQGWA-OH (disulfide 15-31) [CRRL 191]” came in with an EC50 at human GC-A of 0.48 nM. Further, the “Mean (intracellular cGMP)” value on human GC-A (10^−6 M peptide) worked out at 135.48; on human GC-A (10^−7 M peptide), 140.84; on human GC-A (10^−8 M peptide) it was 152.04; on human GC-A (10^−9 M peptide), 89.94; on human GC-A (10^−10 M peptide) it was 35.57; on human GC-A (10^−12 M peptide) it was 2.57. In addition, the “EC50 potency compared to ANP” value on human GC-A (10 minutes of stimulation) is given as “greater potency”. Besides, in series [1] (10^−9 M to 10^−6 M, FIG. 5), the “cGMP production compared to MANP or CRRL 101” value is “great levels of cGMP production than MANP or CRRL 101”. The “cGMP production compared to ANP” value in series [1] (10^−10 M to 10^−6 M, 10 min, FIG. 4) is on record as “greater cGMP production than ANP”. Also, the “lowering systolic blood pressure compared to ANP” value in series [2] (iv infusion, FIG. 8A) was “more effective at lowering”. Also, the “lowering diastolic blood pressure compared to ANP” value in series [2] (iv infusion, FIG. 8B) is “more effective at lowering”. The “lowering mean arterial blood pressure compared to ANP” value in series [2] (iv infusion, FIG. 8C) is recorded as “more effective at lowering”. Moreover, the “duration of blood pressure effect after peptide administration compared to ANP” value in series [2] (washout) is listed as “more sustained effect over time”. In addition, the “activating cGMP in plasma compared to ANP” value in series [3] (setting [4]) is on record as “more potent”. The “duration of plasma cGMP activation after peptide administration compared to ANP” value in series [3] (setting [4]) is on record as “more sustained activation”. The “plasma cGMP levels” value in series [3] (iv infusion, FIG. 9A) was “increase”. For the same substance, the solubility in the series “physchem” was not below 1000 µg/mL.

Usually EC50 stands for the concentration that produces a half-maximal response. One may read the solubility as how much of the substance goes into solution per volume.
